Assay results published in paper PMC7395068, “The evolution of strategies to minimise the risk of human drug-induced liver injury (DILI) in drug discovery and development” (Archives of Toxicology, 2020).
Where two headings read alike, the source gives them in different places.

Assays:
[1] = system: hLiMTs; settings: cited from earlier work
[2] = system: HepG2 cells; settings: cited from earlier work
[3] = cited from earlier work
[4] = cited from earlier work; remark: listed apart in the source
[5] = plasma free fraction; cited from earlier work
[6] = Plasma free fraction (fu) and unbound Cmax (Cmax,u); assay type: in vitro ADME, human
Method: The prediction of DILI severity was evaluated further using the 3D combined HCI assays using plasma-free fraction. The majority of fu values were obtained from literature, when unavailable in-house prediction was utilised. Unbound plasma Cmax concentrations (Cmax,u) were derived by multiplying total plasma Cmax with the corresponding free fraction (fu) for each compound.

[7] = system: rBsep; settings: cited from earlier work
[8] = cited from earlier work; remark: listed apart in the source
[9] = system: HepG2 cells; settings: cited from earlier work; remark: listed apart in the source
[10] = system: HepaRG spheroids; assay: Combined HCI (HCS) and cellular ATP 3D assay in HepaRG spheroids; settings: for AC50 / minimal effective concentration: Homo sapiens
[11] = system: PHH spheroids; settings: cited from earlier work
[12] = system: hLiMTs; assay: Combined HCI (HCS) and cellular ATP 3D assay in hLiMTs; settings: for AC50 / minimal effective concentration: Homo sapiens
[13] = system: HepG2 cells, primary human hepatocytes; settings: cited from earlier work
[14] = cited from earlier work; remark: listed apart in the source
[15] = system: PHH; settings: cited from earlier work
[16] = system: THLE-Null and THLE-3A4 cells; settings: cited from earlier work
[17] = system: Upcyte human hepatocytes; settings: cited from earlier work
[18] = system: THLE or HepG2 cells, isolated mitochondria, BSEP; settings: cited from earlier work
[19] = system: human hepatocytes; settings: cited from earlier work
[20] = system: HepaRG spheroids
[21] = system: HepG2 C3A spheroid, BSEP, Glu/Gal in HepG2 cells, bioactivation; settings: cited from earlier work
[22] = system: primary human hepatocytes, NIH3T3 fibroblasts, BSEP, CYP3A4; settings: cited from earlier work
[23] = system: hLiMTs
[24] = In vitro Assay, ref Proctor 2017
[25] = In vitro Assay, ref Dawson 2012
[26] = HepaRG, read-out: ATP endpoint AC50
[27] = HepaRG, read-out: ATP endpoint MEC
[28] = HepaRG, read-out: HCS endpoint AC50
[29] = HepaRG, read-out: HCS endpoint MEC
[30] = Microtissue model structural based (HCI), combined HCS and ATP, MEC < 25 × Cmax.tot cut-off
[31] = In vitro Assay, ref Gustafsson 2014
[32] = Modeled in vitro assays (cytotoxicity, mitochondrial dysfunction, BSEP), ref Aleo et al. 2019

## Cn1cnc([N+](=O)[O-])c1Sc1ncnc2nc[nH]c12 [azathioprine]
[1]; [24]
  hLiMTs ATP <100uM: +VE (IC50 threshold of 100 µM)
[1]; hLiMTs, ATP, IC50 < 100 × Cmax.tot, ref Proctor et al. 2017
  hLiMTs/100xCmax, Proctor (2017): +VE (IC50 < 100 × Cmax.tot)
[1]; hLiMTs, ATP, IC50 threshold 100 µM, ref Proctor et al. 2017
  hLiMTs/100uM, Proctor (2017): +VE (IC50 threshold of 100 µM)
[2]; In vitro Assay, ref Tolosa 2012
  Structural based (HCI): +VE
[2]; Structural based (HCI), HepG2, ref Tolosa et al. 2012
  DILI in vitro assay prediction, Tolosa (2012): +VE
[3]; LTKB DILIrank category, ref Chen et al. 2016
  DILI severity category (Chen et al. [2016]): Most
[3]; human DILI classification, LTKB DILIrank, ref Chen et al. 2016
  DILI severity category (Chen 2016): Most
[3]; human DILI severity, ref Chen et al.
  DILI severity category: Most
[3]; ref Chen 2016
  DILI +VE (5-8), DILI -VE (-4): +VE
  DILI severity category: vMost-DILI-Concern
[4]; ref Chen 2011
  DILI Score (FDA) (1-8): 3
[5]
  fu: 0.700
[6]; unbound plasma Cmax
  Human plasma Cmax,u: 5048 nM
[7]; [25]
  Inhibition of rBsep cutoff<1& cmax u>.2: -VE
  Inhibition of rBsep cutoff<3: -VE
[8]; read-out: Human plasma Cmax, total plasma Cmax.tot, median of 9 literature references
  Cmax: 7210 nM
[9]; In vitro Assay, ref O'Brien 2006
  Structural based (HCI): +VE
[9]; Structural based (HCI), HepG2, ref O'Brien et al. 2006
  DILI in vitro assay prediction, O'Brien (2006): +VE (lowest HCI endpoint IC50 (or in the absence of dose–response < 100 µM) < 30 × total human plasma exposure levels (Cmax.tot))
[10]; HepaRG, ATP endpoint, cut-off <25x Avg Cmax
  HepaRG <25x Avg Cmax ATP: +ve
[10]; HepaRG, ATP endpoint, cut-off <100x Avg Cmaxu
  HepaRG <100x Avg Cmaxu ATP: +ve (<100x Avg Cmaxu)
[10]; HepaRG, HCS endpoints, cut-off <25x Avg Cmax
  HepaRG <25x Avg Cmax HCS: +ve
[10]; HepaRG, HCS endpoints, cut-off <100x Avg Cmaxu
  HepaRG <100x Avg Cmaxu HCS: +ve (<100x Avg Cmaxu)
[10]; HepaRG, all endpoints (ATP and HCS), cut-off <25x Avg Cmax
  HepaRG <25x Avg Cmax All: +ve
[10]; HepaRG, all endpoints, Cmax max used
  HepaRG Cmax max All: +ve
[10]; HepaRG, all endpoints, Cmax min used
  HepaRG Cmax min All: +ve
[10]; HepaRG, all endpoints, cut-off <10 uM
  HepaRG <10 uM All: +ve (<10 uM)
[10]; HepaRG, all endpoints, cut-off <100x Avg Cmaxu
  HepaRG <100x Avg Cmaxu All: +ve (<100x Avg Cmaxu)
[10]; [26]
  AC50: 0.48 µM
[10]; [27]
  minimal effective concentration: 0.278 µM
[10]; [28]
  AC50: 2 µM
[10]; [29]
  minimal effective concentration: 0.0805 µM
[10]; [30]
  DILI prediction HepaRG spheroids (HCS-MEC): +VE (MEC < 25 × Cmax.tot cut-off)
[11]; In vitro Assay, ref Vorrink 2018
  hLiMTs ATP <20 x Cmax: +VE (IC20 < 20 × Cmax.tot cut-off)
[11]; PHH spheroids, ATP, 14 days, IC20 < 20 × Cmax.tot, ref Vorrink et al. 2018
  DILI in vitro assay prediction, Vorrink (2018): +VE (IC20 < 20 × Cmax.tot cut-off)
[12]; read-out: ATP endpoint AC50
  AC50: 1.18 µM
[12]; read-out: ATP endpoint MEC
  minimal effective concentration: 0.361 µM
[12]; read-out: HCS endpoint AC50
  AC50: 41.6 µM
[12]; read-out: HCS endpoint MEC
  minimal effective concentration: 1.58 µM
[12]; [30]
  DILI prediction hLiMTs (HCS-MEC): +VE (MEC < 25 × Cmax.tot cut-off)
[12]; hLiMTs, ATP endpoint, cut-off <25x Avg Cmax
  hLiMTs <25x Avg Cmax ATP: +ve
[12]; hLiMTs, ATP endpoint, cut-off <100x Avg Cmaxu
  hLiMTs <100x Avg Cmaxu ATP: +ve (<100x Avg Cmaxu)
[12]; hLiMTs, HCS endpoints, cut-off <25x Avg Cmax
  hLiMTs <25x Avg Cmax HCS: +ve
[12]; hLiMTs, HCS endpoints, cut-off <100x Avg Cmaxu
  hLiMTs <100x Avg Cmaxu HCS: +ve (<100x Avg Cmaxu)
[12]; hLiMTs, all endpoints (ATP and HCS), cut-off <25x Avg Cmax
  hLiMTs <25x Avg Cmax All: +ve
[12]; hLiMTs, all endpoints, Cmax max used
  hLiMTs Cmax max All: +ve
[12]; hLiMTs, all endpoints, Cmax min used
  hLiMTs Cmax min All: +ve
[12]; hLiMTs, all endpoints, cut-off <10 uM
  hLiMTs <10 uM All: +ve (<10 uM)
[12]; hLiMTs, all endpoints, cut-off <100x Avg Cmaxu
  hLiMTs <100x Avg Cmaxu All: +ve (<100x Avg Cmaxu)
[13]; In vitro Assay, ref Garside 2014
  Cluster 1-6 +VE Assay: -VE
[14]; Chen et al. 2016 or literature alignment, ref Chen et al. 2016
  Assigned DILI category: 3
[14]; […]
  In vivo DILI: +VE
[14]; ref Aleo 2019
  In vivo DILI: +VE
[14]; ref Dawson 2012
  In vivo DILI: +VE
[14]; ref Garside 2014
  In vivo DILI: +VE
[14]; ref Gustafsson 2014
  In vivo DILI: +VE
[14]; ref O'Brien 2006
  In vivo DILI: +VE
[14]; ref Proctor 2017
  In vivo DILI: +VE
[14]; ref Tolosa 2012
  In vivo DILI: +VE
[14]; ref Tolosa 2019
  In vivo DILI: +VE
[14]; ref Vorrink 2018
  In vivo DILI: +VE
[14]; ref Xu 2008
  In vivo DILI: +VE
[15]; 2D PHH, ATP, IC50 < 100 × Cmax.tot, ref Proctor et al. 2017
  PHH/100xCmax, Proctor (2017): -VE
[15]; 2D PHH, ATP, IC50 threshold 100 µM, ref Proctor et al. 2017
  PHH/100uM, Proctor (2017): -VE
[15]; [24]
  PHH ATP <100uM: -VE
[16]; [31]
  THLE-Null: -VE
  THLE-Null/3A4: -VE
[17]; In vitro Assay, ref Tolosa 2019
  Upcytes multi donor assay 14day data: +VE
[18]; In vitro Assay, ref Aleo 2019
  Partition Hybrid HRM Score: -VE
  Ro2 Hybrid HRM Score: +VE
[18]; [32]
  Partition Hybrid HRM Score ≥4, Aleo (2019): -VE
  Partition Hybrid HRM Score ≥8, Aleo (2019): -VE
  Rule of Two hybrid HRM Score ≥3, Aleo (2019): +VE (Rule of Two hybrid HRM Score ≥3)
  Rule of Two hybrid HRM Score ≥8, Aleo (2019): -VE
[19]; In vitro Assay, ref Xu 2008
  Structural based (HCI): +VE
[19]; Structural based (HCI), human hepatocytes, ref Xu et al. 2008
  DILI in vitro assay prediction, Xu (2008): +VE

## Nc1c2c(nc3ccccc13)CCCC2 [tacrine, reference compound]
[4]; in vivo
  DILI Score (FDA) (1-8): 7
[6]; human
  Human plasma Cmax,u: 36 nM
[7]; [25]
  Inhibition of rBsep cutoff<3: -VE
[7]
  Inhibition of rBsep cutoff<1& cmax u>.2: -VE
[8]; human, in vivo
  Cmax: 80 nM
[9]
  Structural based (HCI): -VE
[10]; [26]
  AC50: 51.8 µM
[10]; [27]
  minimal effective concentration: 45.3 µM
[10]; [28]
  AC50: 65.6 µM
[10]; [29]
  minimal effective concentration: 48.7 µM
[11]
  DILI in vitro assay prediction, Vorrink (2018): -VE
[20]
  HepaRG <10 uM All: -ve
[20]; human
  HepaRG <100x Avg Cmaxu ATP: -ve
  HepaRG <100x Avg Cmaxu All: -ve
  HepaRG <100x Avg Cmaxu HCS: -ve
  HepaRG Cmax max All: -ve
  HepaRG Cmax min All: -ve
[12]; read-out: ATP endpoint AC50
  AC50: 41.8 µM
[12]; read-out: ATP endpoint MEC
  minimal effective concentration: 44.7 µM
[12]; read-out: HCS endpoint AC50
  AC50: 52.4 µM
[12]; read-out: HCS endpoint MEC
  minimal effective concentration: 38.5 µM
[21]
  Bayesian Machine Learning: +VE
  Bayesian Machine Learning DILI prediction, Williams (2019): +VE
[22]
  Cellular toxicity (3T3 cells): -VE
  Combined Assay: +VE
  DILI in vitro assay prediction, Schadt (2015): +VE
  GSH adduct HML: +VE
  Hepatocyte cellular toxicity: -VE
  MitoTox 3T3: -VE
  TDI CYP3A4: -VE
  hBSEP inhibition: -VE
[13]
  Cluster 1-6 +VE Assay: +VE
[23]
  hLiMTs <10 uM All: -ve
[23]; human
  hLiMTs <100x Avg Cmaxu ATP: -ve
  hLiMTs <100x Avg Cmaxu All: -ve
  hLiMTs <100x Avg Cmaxu HCS: -ve
  hLiMTs Cmax max All: -ve
  hLiMTs Cmax min All: -ve
[14]; in vivo
  Assigned DILI category: 2
[15]
  PHH ATP <100uM: -VE
  PHH/100uM, Proctor (2017): -VE
[16]
  THLE-Null: -VE
[17]
  Upcytes multi donor assay 14day data: +VE
[18]
  Ro2 Hybrid HRM Score: +VE
  Rule of Two hybrid HRM Score ≥8, Aleo (2019): -VE
[19]
  DILI in vitro assay prediction, Xu (2008): -VE
  Structural based (HCI): -VE
